This test deals with L1210 leukemia ip in BDF1 mice, survival T/C. Put plainly: NCI In Vivo Anticancer Drug Screen. Data for tumor model L1210 Leukemia (intraperitoneal) in B6D2F1 (BDF1) mice. Particulars: endpoint: mean survival time, higher = longer survival. An outline of the steps: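 Transplantable tumor model; survival measured in treated vs vehicle control mice. Value = treated/control.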
The mark [1] stands for this setting: dose: 50.0 mg/kg/injection, schedule: Q01DX009 (ip), vehicle: saline.
Where [2] appears, read: dose: 100.0 mg/kg/injection, schedule: Q01DX009 (ip), vehicle: saline.
Setting [3] is: dose: 100.0 mg/kg/injection, schedule: Q01DX001 (ip), vehicle: carboxymethylcellulose (CMC).
[4] abbreviates: dose: 200.0 mg/kg/injection, schedule: Q01DX001 (ip), vehicle: carboxymethylcellulose (CMC).
Where [5] appears, read: dose: 400.0 mg/kg/injection, schedule: Q01DX001 (ip), vehicle: carboxymethylcellulose (CMC).
Where [6] appears, read: dose: 75.0 mg/kg/injection, schedule: Q01DX001 (ip), vehicle: saline.
Where [7] appears, read: dose: 100.0 mg/kg/injection, schedule: Q04DX003 (ip), vehicle: saline.
Setting [8] is: dose: 150.0 mg/kg/injection, schedule: Q01DX001 (ip), vehicle: saline.
The mark [9] stands for this setting: dose: 300.0 mg/kg/injection, schedule: Q01DX001 (ip), vehicle: saline.
[10] abbreviates: dose: 50.0 mg/kg/injection, schedule: Q01DX009 (ip), vehicle: saline with Tween-80.
Where [11] appears, read: dose: 100.0 mg/kg/injection, schedule: Q01DX009 (ip), vehicle: saline with Tween-80.
Setting [12] is: dose: 100.0 mg/kg/injection, schedule: Q01DX009 (ip), vehicle: saline sonified.
The mark [13] stands for this setting: dose: 100.0 mg/kg/injection, schedule: Q01DX005 (ip), vehicle: saline.
Setting [14] is: dose: 200.0 mg/kg/injection, schedule: Q01DX005 (ip), vehicle: saline.

“And” between values parts separate entries of the source, which are not always exact repeats. Identical values can stand only once. Inconclusive results and toxic doses are left out.

Take `C1CCC2C[N-]CCC2C1.C1CCC2C[N-]CCC2C1.C1CCC2C[N-]CCC2C1.C1CCC2C[N-]CCC2C1.[I][Fe][I]` (stereo not given): the T/C reads like this: under setting [1], 89 % of control; under setting [2], 94 % of control.
As to `CCNc1nc2c(=O)[nH]c(N)nc2n1C1OC(CO)C(O)C1O` (stereo not given), the T/C by setting is: under setting [3], 107 % of control; under setting [4], 96 % of control; under setting [5], 107 % of control.
Turning to `CC(C)=NOC(C)C(=O)O` (stereo not given), the T/C runs as follows: under setting [1], 94 % of control and 101 % of control; (dose: 50.0 mg/kg/injection, schedule: Q04DX003 (ip), vehicle: saline) 95 % of control; under setting [6], 101 % of control and 98 % of control; under setting [2], 91 % of control and 97 % of control; under setting [7], 100 % of control and 98 % of control; under setting [8], 103 % of control and 106 % of control. The T/C is 92 % of control and 103 % of control (dose: 200.0 mg/kg/injection, schedule: Q01DX009 (ip), vehicle: saline); 97 % of control and 95 % of control (dose: 200.0 mg/kg/injection, schedule: Q04DX003 (ip), vehicle: saline); 114 % of control under setting [9].
`CC1(C)N=C(N)N=C(N)N1c1ccc(CCc2ccccc2)c(Cl)c1`: the T/C was 100 % of control (dose: 3.13 mg/kg/injection, schedule: Q01DX009 (ip), vehicle: Klucel (hydroxypropylcellulose) (HPC)); 104 % of control (dose: 6.25 mg/kg/injection, schedule: Q01DX009 (ip), vehicle: Klucel (hydroxypropylcellulose) (HPC)); 104 % of control (dose: 12.5 mg/kg/injection, schedule: Q01DX009 (ip), vehicle: Klucel (hydroxypropylcellulose) (HPC)); 93 % of control (dose: 12.5 mg/kg/injection, schedule: Q04DX003 (ip), vehicle: Klucel (hydroxypropylcellulose) (HPC)); 107 % of control (dose: 25.0 mg/kg/injection, schedule: Q01DX009 (ip), vehicle: Klucel (hydroxypropylcellulose) (HPC)); 93 % of control (dose: 25.0 mg/kg/injection, schedule: Q04DX003 (ip), vehicle: Klucel (hydroxypropylcellulose) (HPC)). Moreover, the T/C (dose: 50.0 mg/kg/injection, schedule: Q04DX003 (ip), vehicle: Klucel (hydroxypropylcellulose) (HPC)) is 94 % of control.
On to `COc1cc(CCN(C)C)cc(OC)c1OC`, for which the T/C was 95 % of control under setting [6], 101 % of control under setting [8] and 102 % of control under setting [9].
Take `C[n+]1cccc(C(=O)N/N=C/C=C/c2ccccc2)c1`: the T/C runs as follows: under setting [10], 96 % of control; under setting [11], 100 % of control.
In the case of `O=[N+]([O-])c1ccc(S)cc1`, the T/C under setting [12] was 103 % of control; the T/C (dose: 100.0 mg/kg/injection, schedule: Q04DX003 (ip), vehicle: Klucel (hydroxypropylcellulose) (HPC)) is 89 % of control; the T/C (dose: 200.0 mg/kg/injection, schedule: Q01DX009 (ip), vehicle: saline sonified) is 91 % of control; the T/C (dose: 400.0 mg/kg/injection, schedule: Q01DX009 (ip), vehicle: saline sonified) is 92 % of control; the T/C (dose: 400.0 mg/kg/injection, schedule: Q04DX003 (ip), vehicle: Klucel (hydroxypropylcellulose) (HPC)) was 90 % of control.
Turning to `COc1ccc2c(c1)sc(/C=C/c1ccc(O)c3ncccc13)[n+]2C`, the T/C was 111 % of control under setting [6], 110 % of control under setting [8] and 117 % of control under setting [9].
As to `CCN(CC)c1ccc(NCS(=O)(=O)O)cc1`, the T/C by setting is: (dose: 50.0 mg/kg/injection, schedule: Q01DX009 (ip), vehicle: saline sonified) 103 % of control; under setting [12], 101 % of control; under setting [7], 110 % of control.
With `O=[N+]([O-])c1cccc(C(O)CC(O)(C(F)(F)F)C(F)(F)F)c1` (stereo not given), the T/C reads like this: under setting [11], 98 % of control; (dose: 100.0 mg/kg/injection, schedule: Q04DX003 (ip), vehicle: saline with Tween-80) 95 % of control; (dose: 200.0 mg/kg/injection, schedule: Q01DX009 (ip), vehicle: saline with Tween-80) 101 % of control; (dose: 200.0 mg/kg/injection, schedule: Q04DX003 (ip), vehicle: saline with Tween-80) 97 % of control; (dose: 400.0 mg/kg/injection, schedule: Q01DX009 (ip), vehicle: saline with Tween-80) 95 % of control; (dose: 400.0 mg/kg/injection, schedule: Q04DX003 (ip), vehicle: saline with Tween-80) 103 % of control.
Turning to `O=S(=O)(O)c1ccc2cc(O)c(O)cc2c1`, the T/C (dose: 100.0 mg/kg/injection, schedule: Q04DX002 (ip), vehicle: Klucel (hydroxypropylcellulose) (HPC)) was 91 % of control; the T/C (dose: 200.0 mg/kg/injection, schedule: Q04DX002 (ip), vehicle: Klucel (hydroxypropylcellulose) (HPC)) is 95 % of control; the T/C (dose: 400.0 mg/kg/injection, schedule: Q04DX002 (ip), vehicle: Klucel (hydroxypropylcellulose) (HPC)) was 95 % of control.
`Nc1nccc2c1ncn2C1OC(CO)C(O)C1O` (stereo not given): the T/C under setting [13] was 108 % of control and the T/C under setting [14] is 109 % of control.
In the case of `N=C(N)SC1c2cc(Cl)ccc2-c2c(Cl)cc(Cl)cc21` (stereo not given), the T/C by setting is: under setting [3], 94 % of control; under setting [4], 92 % of control.
In the case of `O=C(O)/C=C(\Cl)CC(=O)O`, the T/C by setting is: (dose: 100.0 mg/kg/injection, schedule: Q01DX001 (ip), vehicle: saline) 102 % of control; (dose: 200.0 mg/kg/injection, schedule: Q01DX001 (ip), vehicle: saline) 96 % of control.
On to `CC(CO)(CO)N=Cc1cc(Cl)cc(Cl)c1O`, for which the T/C is, setting by setting: (dose: 50.0 mg/kg/injection, schedule: Q01DX001 (ip), vehicle: carboxymethylcellulose (CMC)) 107 % of control; under setting [3], 97 % of control; under setting [4], 107 % of control; under setting [5], 97 % of control.
As for `O=C1OC(c2cccc([N+](=O)[O-])c2)=N/C1=C\c1ccc(O)cc1`, the T/C by setting is: (dose: 100.0 mg/kg/injection, schedule: Q04DX002 (ip), vehicle: saline) 101 % of control; (dose: 200.0 mg/kg/injection, schedule: Q04DX002 (ip), vehicle: saline) 101 % of control; (dose: 400.0 mg/kg/injection, schedule: Q04DX002 (ip), vehicle: saline) 101 % of control.
With `COc1cc2c(cc1OC(C)=O)C=CCCC2=O`, the T/C is, setting by setting: (dose: 100.0 mg/kg/injection, schedule: Q01DX009 (ip), vehicle: other) 97 % of control; (dose: 100.0 mg/kg/injection, schedule: Q04DX003 (ip), vehicle: other) 105 % of control; (dose: 200.0 mg/kg/injection, schedule: Q01DX009 (ip), vehicle: other) 90 % of control; (dose: 200.0 mg/kg/injection, schedule: Q04DX003 (ip), vehicle: other) 105 % of control; (dose: 400.0 mg/kg/injection, schedule: Q01DX009 (ip), vehicle: other) 97 % of control; (dose: 400.0 mg/kg/injection, schedule: Q04DX003 (ip), vehicle: other) 104 % of control.
For `Nc1nc(SCc2ccccc2)c2ncn(C3CC(O)C(CO)O3)c2n1` (stereo not given), the T/C was 118 % of control (dose: 7.0 mg/kg/injection, schedule: Q01DX015 (ip), vehicle: saline); 168 % of control (dose: 12.0 mg/kg/injection, schedule: Q01DX015 (ip), vehicle: saline); 172 % of control (dose: 20.0 mg/kg/injection, schedule: Q01DX015 (ip), vehicle: saline); 153 % of control (dose: 34.0 mg/kg/injection, schedule: Q01DX015 (ip), vehicle: saline); 97 % of control under setting [13]; 113 % of control under setting [14]. For the setting “dose: 400.0 mg/kg/injection, schedule: Q01DX001 (ip), vehicle: saline”, the T/C was 157 % of control.
As for `FC(F)(F)c1cccc(NC2=NCCS2)c1`, the T/C was 91 % of control under setting [10]; 98 % of control under setting [11]; 97 % of control (dose: 100.0 mg/kg/injection, schedule: Q04DX002 (ip), vehicle: saline with Tween-80); 115 % of control (dose: 200.0 mg/kg/injection, schedule: Q04DX002 (ip), vehicle: saline with Tween-80).
Consider `S=c1c2[nH]cnc2ncn1C1CCCCC1`, for which the T/C is 96 % of control (dose: 4.4 mg/kg/injection, schedule: Q01DX009 (ip), vehicle: saline with Tween-80); 102 % of control (dose: 6.7 mg/kg/injection, schedule: Q01DX009 (ip), vehicle: saline with Tween-80); 90 % of control (dose: 10.0 mg/kg/injection, schedule: Q01DX009 (ip), vehicle: saline with Tween-80); 95 % of control (dose: 15.0 mg/kg/injection, schedule: Q01DX009 (ip), vehicle: saline with Tween-80).

Values taken from PubChem BioAssay AID248 (DTP/NCI, 2004).
